Data published in article PMC9537541, “Synthesis and anticancer activity of new benzensulfonamides incorporating s-triazines as cyclic linkers for inhibition of carbonic anhydrase IX” (Scientific Reports, 2022).
Counter-ions that a name gives are not always drawn.

How the values were obtained:
[1] = biological target: T1, hCA IX (Homo sapiens, UniProt Q16790); assay: stopped-flow CO2 hydrase assay, hCA IX; format: biochemical; conditions: for Selectivity index (SI) I/IX: hCA IX over off-target hCA I; for Selectivity index (SI) II/IX: hCA IX over off-target hCA II; for Ki: stopped flow technique, mean from 3 different assays
T1 construct: made in house
Protocol: (§1) Target compounds of series (A) and (B) were screened as inhibitors concerning the physiologically relevant hCAs; cytosolic isoforms (hCA I and II) in addition to the transmembrane tumor related isoforms (hCA IX and XII) via a stopped-flow assay of carbonic anhydrase catalyzed CO2 hydration. Acetazolamide (AAZ), CA I drug, was also incorporated in the assays as a standard drug. […] Four CA isoforms inhibition activity was measured by assaying CA catalyzed CO2 hydration via an applied photophysics stopped-flow instrument. PRISM 3 and the Cheng-prusoff equation were used to determine the inhibition constant by non-linear least square methods as reported, and represent the mean from three different determination at least. All tested carbonic anhydrase isoforms were recombinant proteins prepared in lab as described earlier,[57].

[2] = test system: CNS cancer (SNB-75); assay: NCI single dose SRB screen, SNB-75; format: cell-based; conditions: Homo sapiens, SNB-75, 48 h, 10^−5 M single dose, read-out: GI% CNS cancer (SNB-75)
Protocol: (§2) Target compounds in series (A) and (B), were submitted to the National Cancer Institute (NCI) Developmental Therapeutic Program (www.dtp.nci.nih.gov), where they have been assessed, in vitro for their anticancer activity. Two series (A) and (B), were screened in a single dose (10 µM) versus full panel composed of 60 cancer cell lines, in accordance with protocol of drug evaluation branch, NCI, Bethesda. Sulforhodamine B (SRB) colorimetric assay was used to determine cell growth and viability,[40].
(§3) Protocol of Drug Evaluation Branch, NCI, Bethesda, was adopted in the antitumor assay. Assessment of cell growth and viability was carried out utilizing SRB assay and 48 h drug exposure protocol as previously reported,[40].

[3] = test system: Renal cancer (UO-31); assay: NCI single dose SRB screen, UO-31; format: cell-based; conditions: Homo sapiens, UO-31, 48 h, 10^−5 M single dose, read-out: GI% Renal cancer (UO-31)
Protocol: as §2, §3

[4] = test system: Leukemia (SR); assay: NCI single dose SRB screen, SR; format: cell-based; conditions: 48 h, 10^−5 M single dose, read-out: GI% Leukemia (SR)
Protocol: as §2, §3

[5] = test system: Breast cancer (MDA-MB-468); assay: NCI single dose SRB screen, MDA-MB-468; format: cell-based; conditions: Homo sapiens, MDA-MB-468, 48 h, 10^−5 M single dose, 48 h, SRB; read-out: GI% Breast cancer (MDA-MB-468)
Protocol: as §2, §3

[6] = biological target: T2, hCA II (Homo sapiens, UniProt P00918); assay: stopped-flow CO2 hydrase assay, hCA II; format: biochemical; conditions: stopped flow technique, mean from 3 different assays
T2 construct: made in house
Protocol: as §1

[7] = biological target: T3, hCA XII (Homo sapiens, UniProt O43570); assay: stopped-flow CO2 hydrase assay, hCA XII; format: biochemical; conditions: for Selectivity index (SI) I/XII: hCA XII over off-target hCA I; for Selectivity index (SI) II/XII: hCA XII over off-target hCA II; for Ki: stopped flow technique, mean from 3 different assays
T3 construct: made in house
Protocol: as §1

[8] = biological target: T4, hCA I (Homo sapiens, UniProt P00915); assay: stopped-flow CO2 hydrase assay, hCA I; format: biochemical; conditions: stopped flow technique, mean from 3 different assays
T4 construct: made in house
Protocol: as §1

T3 sequence (O43570 25-354): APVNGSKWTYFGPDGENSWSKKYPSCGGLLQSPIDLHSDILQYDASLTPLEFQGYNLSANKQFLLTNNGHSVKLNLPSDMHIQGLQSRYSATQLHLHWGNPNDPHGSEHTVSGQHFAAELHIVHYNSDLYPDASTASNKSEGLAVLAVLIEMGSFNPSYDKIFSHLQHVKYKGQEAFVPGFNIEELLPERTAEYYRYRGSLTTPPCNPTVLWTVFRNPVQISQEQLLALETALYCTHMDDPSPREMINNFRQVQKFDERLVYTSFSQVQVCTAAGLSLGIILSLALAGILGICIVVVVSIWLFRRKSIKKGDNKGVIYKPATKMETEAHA
T4 sequence (P00915 whole entry): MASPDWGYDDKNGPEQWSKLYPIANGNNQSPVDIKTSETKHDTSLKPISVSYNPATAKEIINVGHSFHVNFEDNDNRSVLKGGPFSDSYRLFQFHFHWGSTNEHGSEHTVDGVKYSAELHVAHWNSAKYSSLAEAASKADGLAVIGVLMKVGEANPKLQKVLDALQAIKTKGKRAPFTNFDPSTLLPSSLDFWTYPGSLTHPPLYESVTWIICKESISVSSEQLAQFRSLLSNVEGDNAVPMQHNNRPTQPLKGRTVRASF

melting point [°C]	Selectivity index (SI) I/IX [1]	Selectivity index (SI) II/IX [1]	Ki [1] [µM]	Ki [6] [µM]	Selectivity index (SI) I/XII [7]	Selectivity index (SI) II/XII [7]	Ki [7] [µM]	Ki [8] [µM]	SMILES	inhibition at 10 µM [2] [%]	inhibition at 10 µM [3] [%]	inhibition at 10 µM [4] [%]	inhibition at 10 µM [5] [%]
240 to 241									NC1=NC2(CCCC2)N(c2ccc(S(N)(=O)=O)cc2)C(N)=N1 (as salt: HCl) [Compound 6a, 4-(7,9-Diamino-6,8,10-triazaspiro[4.5]deca-7,9-dien-6-yl) benzene-1-sulfonamide HCl]				
257 to 259									NC1=NC2(CCCCC2)N(c2ccc(S(N)(=O)=O)cc2)C(N)=N1 (as salt: HCl) [Compound 6b, 4-(2,4-Diamino-1,3,5-triazaspiro[5.5]undeca-2,4-dien-1-yl)benzene-1-sulfonamide.HCl]				
245 to 247									CC1CCC2(CC1)N=C(N)N=C(N)N2c1ccc(S(N)(=O)=O)cc1 (centres unmarked) (as salt: HCl) [Compound 6c, 4-(2,4-Diamino-9-methyl-1,3,5-triazaspiro[5.5]undeca-2,4-dien-1-yl)benzene-1-sulfonamide.HCl]				
221 to 223									NC1=NC2(CCCC2)N(c2ccc(S(=O)(=O)Nc3ccccn3)cc2)C(N)=N1 (as salt: HCl) [Compound 6d, 4-(7,9-Diamino-6,8,10-triazaspiro[4.5]deca-7,9-dien-6-yl}-N-(pyridin-2-yl)benzene-1-sulfonamide.HCl]				
	0.6	0.8	1.06	0.832	0.1	0.2	5.34	0.628	NC1=NC2(CCCC2)N(c2ccc(S(N)(=O)=O)cc2)C(N)=N1 [Compound 6a, 4-(7,9-Diamino-6,8,10-triazaspiro[4.5]deca-7,9-dien-6-yl) benzene-1-sulfonamide HCl]	≤ 10	19	13	18
	0.4	0.8	1.16	0.915	0.1	0.2	4.85	0.437	NC1=NC2(CCCCC2)N(c2ccc(S(N)(=O)=O)cc2)C(N)=N1 [Compound 6b, 4-(2,4-Diamino-1,3,5-triazaspiro[5.5]undeca-2,4-dien-1-yl)benzene-1-sulfonamide.HCl]	28	≤ 10	≤ 10	≤ 10
	0.1	0.1	1.85	0.179	0.02	0.04	4.91	0.145	CC1CCC2(CC1)N=C(N)N=C(N)N2c1ccc(S(N)(=O)=O)cc1 (centres unmarked) [Compound 6c, 4-(2,4-Diamino-9-methyl-1,3,5-triazaspiro[5.5]undeca-2,4-dien-1-yl)benzene-1-sulfonamide.HCl]	21	16	≤ 10	≤ 10
			> 10	> 10			> 10	> 10	NC1=NC2(CCCC2)N(c2ccc(S(=O)(=O)Nc3ccccn3)cc2)C(N)=N1 [Compound 6d, 4-(7,9-Diamino-6,8,10-triazaspiro[4.5]deca-7,9-dien-6-yl}-N-(pyridin-2-yl)benzene-1-sulfonamide.HCl]	30	12	≤ 10	≤ 10
			> 10	> 10			> 10	> 10	NC1=NC2(CCCC2)N(c2ccc(S(=O)(=O)Nc3nccs3)cc2)C(N)=N1 [Compound 6h, 4-{7,9-Diamino-6,8,10-triazaspiro[4.5]deca-7,9-dien-6-yl}-N-(1,3-thiazol-2-yl)benzene-1-sulfonamide.HCl]	≤ 10	17	≤ 10	≤ 10
			> 10	> 10			> 10	> 10	NC1=NC2(CCCCC2)N(c2ccc(S(=O)(=O)Nc3nccs3)cc2)C(N)=N1 [Compound 6i, 4-(2,4-Diamino-1,3,5-triazaspiro[5.5]undeca-2,4-dien-1-yl)-N-(1,3-thiazol-2-yl)benzene-1-sulfonamide.HCl]	≤ 10	14	≤ 10	≤ 10

Further lines, the molecule ahead of its results:

SMILES	melting point [°C]	Selectivity index (SI) I/IX [1]	Selectivity index (SI) II/IX [1]	Ki [1] [µM]	Ki [6] [µM]	Selectivity index (SI) I/XII [7]	Selectivity index (SI) II/XII [7]	Ki [7] [µM]	Ki [8] [µM]	inhibition at 10 µM [2] [%]	inhibition at 10 µM [3] [%]	inhibition at 10 µM [4] [%]	inhibition at 10 µM [5] [%]
CC1(C)N=C(N)N=C(N)N1c1ccc(S(=O)(=O)Nc2nccs2)cc1 (as salt: HCl) [Compound 5c, 4-(4,6-Diamino-2,2-dimethyl-1,2-dihydro-1,3,5-triazin-1-yl)-N-(thiazol-2-yl)benzene-1-sulfonamide.HCl]	216 to 218												
NC1=NC2(CCCCC2)N(c2ccc(S(=O)(=O)Nc3ccccn3)cc2)C(N)=N1 (as salt: HCl) [Compound 6e, 4-(2,4-Diamino-1,3,5-triazaspiro[5.5]undeca-2,4-dien-1-yl)-N-(pyridin-2-yl)benzene-1-sulfonamide.HCl]	246 to 248												
CC1CCC2(CC1)N=C(N)N=C(N)N2c1ccc(S(=O)(=O)Nc2ccccn2)cc1 (centres unmarked) (as salt: HCl) [Compound 6f., 4-(2,4-Diamino-9-methyl-1,3,5-triazaspiro[5.5]undeca-2,4-dien-1-yl)-N-(pyridin-2-yl)benzene-1-sulfonamide.HCl]	217 to 219												
CC1(C)N=C(N)N=C(N)N1c1ccc(S(N)(=O)=O)cc1 [Compound 5a, 4-(4,6-Diamino-1-phenyl-1,2-dihydro-2,2-dimethyl-1,3,5-triazin-1-yl) benzene-1-sulfonamide HCl]		6.7	6.8	0.135	0.913	0.3	0.2	3.52	0.884	29	≤ 10	≤ 10	≤ 10
CC1(C)N=C(N)N=C(N)N1c1ccc(S(=O)(=O)Nc2nccs2)cc1 [Compound 5c, 4-(4,6-Diamino-2,2-dimethyl-1,2-dihydro-1,3,5-triazin-1-yl)-N-(thiazol-2-yl)benzene-1-sulfonamide.HCl]				> 10	> 10			> 10	> 10	35	11	≤ 10	≤ 10
NC1=NC2(CCCCC2)N(c2ccc(S(=O)(=O)Nc3ccccn3)cc2)C(N)=N1 [Compound 6e, 4-(2,4-Diamino-1,3,5-triazaspiro[5.5]undeca-2,4-dien-1-yl)-N-(pyridin-2-yl)benzene-1-sulfonamide.HCl]				> 10	> 10			> 10	> 10	≤ 10	11	≤ 10	≤ 10
CC1CCC2(CC1)N=C(N)N=C(N)N2c1ccc(S(=O)(=O)Nc2ccccn2)cc1 (centres unmarked) [Compound 6f., 4-(2,4-Diamino-9-methyl-1,3,5-triazaspiro[5.5]undeca-2,4-dien-1-yl)-N-(pyridin-2-yl)benzene-1-sulfonamide.HCl]				> 10	> 10			> 10	> 10	23	11	≤ 10	≤ 10
NC1=NC2(CCCCCC2)N(c2ccc(S(=O)(=O)Nc3ccccn3)cc2)C(N)=N1 [Compound 6g, 4-(2,4-Diamino-1,3,5-triazaspiro[5.6]dodeca-2,4-dien-1-yl)-N-(pyridin-2-yl)benzene-1-sulfonamide.HCl]				> 10	> 10			> 10	> 10	33	14	≤ 10	≤ 10
CC1CCC2(CC1)N=C(N)N=C(N)N2c1ccc(S(=O)(=O)Nc2nccs2)cc1 (centres unmarked) [Compound 6j, 4-(2,4-Diamino-9-methyl-1,3,5-triazaspiro[5.5]undeca-2,4-dien-1-yl)-N-(1,3-thiazol-2-yl)benzene-1-sulfonamide.HCl]				> 10	> 10			> 10	> 10	29	17	≤ 10	≤ 10
